Test results: US20110053916A1 (Vertex Pharmaceuticals Incorporated, priority 2009, published 2011)
pKi: −log10 of the molar value.

Molecular target: T1, PknB (Mycobacterium tuberculosis, UniProt P9WI81)
T1 construct: made in house
Test: biochemical
Set-up: species or system M. tuberculosis
Settings: 3 nM PknB, 6 uM GarA, 3 μM ATP, 30 min; competitive tight-binding fit; several symbols in a cell = repeat determinations

T1 sequence (P9WI81 whole entry): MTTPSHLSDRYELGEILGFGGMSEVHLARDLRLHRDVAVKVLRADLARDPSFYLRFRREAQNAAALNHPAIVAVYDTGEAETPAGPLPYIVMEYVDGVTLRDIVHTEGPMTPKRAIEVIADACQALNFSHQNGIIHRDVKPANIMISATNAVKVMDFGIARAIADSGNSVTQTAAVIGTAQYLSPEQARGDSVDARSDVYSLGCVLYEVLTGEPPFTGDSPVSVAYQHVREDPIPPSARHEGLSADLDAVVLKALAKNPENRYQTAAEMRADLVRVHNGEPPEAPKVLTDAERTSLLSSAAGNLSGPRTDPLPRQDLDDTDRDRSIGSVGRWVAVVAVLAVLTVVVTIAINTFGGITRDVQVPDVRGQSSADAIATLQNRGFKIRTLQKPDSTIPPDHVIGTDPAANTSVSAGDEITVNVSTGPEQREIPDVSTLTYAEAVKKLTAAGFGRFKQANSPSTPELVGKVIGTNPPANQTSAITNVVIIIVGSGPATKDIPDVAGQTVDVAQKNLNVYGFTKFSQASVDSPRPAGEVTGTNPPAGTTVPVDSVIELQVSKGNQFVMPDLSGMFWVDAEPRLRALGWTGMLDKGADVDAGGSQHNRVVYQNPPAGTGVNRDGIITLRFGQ

With `C#Cc1cnc(N2CCCCC2)nc1Nc1cc(C2CC2)n[nH]1` [Compound 172, N-(5-Cyclopropyl-1H-pyrazol-3-yl)-5-ethynyl-2-(piperidin-1-yl)pyrimidin-4-amine] the “Ki Values” was “A, B**, B**”.
In the case of `C#Cc1cnc(N2CC[C@@H](NC(C)=O)C2)nc1Nc1cc(C2CC2)n[nH]1` [Compound 193, N-[1-[4-[(5-cyclopropyl-2H-pyrazol-3-yl)amino]-5-ethynyl-pyrimidin-2-yl]pyrrolidin-3-yl]acetamide], the “Ki Values” was “B, C”.
In the case of `CC(=O)NS(=O)(=O)c1ccc(-c2ncc(Cl)c(Nc3cc(C4CC4)[nH]n3)n2)s1` [Compound 194, N-[[5-[5-chloro-4-[(5-cyclopropyl-1H-pyrazol-3-yl)amino]-pyrimidin-2-yl]-2-thienyl]sulfonyl]acetamide], the “Ki Values” was “A, B**”.
In the case of `C#Cc1cnc(-c2ccc(S(=O)(=O)NC(=O)C(C)(C)C)s2)nc1Nc1cc(C2CC2)[nH]n1` [Compound 201, N-[[5-[4-[(5-cyclopropyl-1H-pyrazol-3-yl)amino]-5-ethynyl-pyrimidin-2-yl]-2-thienyl]sulfonyl]-2,2-dimethyl-propanamide], the “Ki Values” was “B*, B*, B”.
`C#Cc1cnc(-c2ccc(C(=O)NCCNC(C)=O)s2)nc1Nc1cc(C2CC2)n[nH]1` [Compound 206, N-(2-acetamidoethyl)-5-(4-(5-cyclopropyl-1H-pyrazol-3-ylamino)-5-ethynylpyrimidin-2-yl)thiophene-2-carboxamide] was tested, and the “Ki Values” was “B**, B**, B*”.
`CC(O)c1cnc(-c2ccc(S(=O)(=O)NC(C)(C)C)s2)nc1Nc1cc(C2CC2)[nH]n1` (stereo not shown) [Compound 208, 5-[4-[(5-cyclopropyl-1H-pyrazol-3-yl)amino]-5-(1-hydroxyethyl)pyrimidin-2-yl]-N-tert-butyl-thiophene-2-sulfonamide] was tested, and the “Ki Values” was “B**, B**, B*, B”.
With `NS(=O)(=O)c1ccc(-c2ncc(C#CCO)c(Nc3cc(C4CC4)[nH]n3)n2)s1` [Compound 217, 5-(4-(5-Cyclopropyl-1H-pyrazol-3-ylamino)-5-(3-hydroxyprop-1-ynyl)pyrimidin-2-yl)thiophene-2-sulfonamide] the “Ki Values” was “A**, A*”.

Same assay, conditions: 3 nM PknB, 6 uM GarA, 3 μM ATP, 30 min; competitive tight-binding fit; several symbols in a cell = repeat determinations; read-out: Ki Values

`C#Cc1cnc(N2CCCNCC2)nc1Nc1cc(C2CC2)n[nH]1` [Compound 174, N-(5-cyclopropyl-2H-pyrazol-3-yl)-2-(1,4-diazepan-1-yl)-5-ethynyl-pyrimidin-4-amine] and `C#Cc1cnc(N2CCNCC2)nc1Nc1cc(C2CC2)n[nH]1` [Compound 175] fall in the same range of pKi: 5.40 to 5.70 for the first, 5.40 to 5.70 for the second.

`N#Cc1ccc(-c2ncc(Br)c(Nc3cc(C4CC4)[nH]n3)n2)s1` [Compound 176, 5-[5-bromo-4-[(5-cyclopropyl-1H-pyrazol-3-yl)amino]-pyrimidin-2-yl]thiophene-2-carbonitrile] and `NS(=O)(=O)c1ccc(-c2ncc(Br)c(Nc3cc(C4CC4)[nH]n3)n2)s1` [Compound 186, 5-[5-bromo-4-[(5-cyclopropyl-1H-pyrazol-3-yl)amino]-pyrimidin-2-yl]thiophene-2-sulfonamide] fall in the same range of pKi: 8.00 to 9.00 for the first, 8.00 to 9.00 for the second.

Compared with `C#Cc1cnc(N2CCN(C)CC2)nc1Nc1cc(C2CC2)[nH]n1` [Compound 177, N-(5-cyclopropyl-1H-pyrazol-3-yl)-5-ethynyl-2-(4-methylpiperazin-1-yl)-pyrimidin-4-amine], `C#Cc1cnc(N2CCCC2)nc1Nc1cc(C2CC2)[nH]n1` [Compound 178, N-(5-cyclopropyl-1H-pyrazol-3-yl)-5-ethynyl-2-pyrrolidin-1-yl-pyrimidin-4-amine] is higher in pKi: 5.40 to 5.70 for the first, 6.30 to 7.00 for the second. The second binds more tightly here.

First: NS(=O)(=O)c1ccc(-c2ncc(C(=O)O)c(Nc3cc(C4CC4)[nH]n3)n2)s1 [Compound 179, 4-(5-cyclopropyl-1H-pyrazol-3-ylamino)-2-(5-sulfamoylthiophen-2-yl)pyrimidine-5-carboxylic acid]
Second: C=Cc1cnc(-c2ccc(S(N)(=O)=O)s2)nc1Nc1cc(C2CC2)[nH]n1 [Compound 209, 5-(4-(5-Cyclopropyl-1H-pyrazol-3-ylamino)-5-vinylpyrimidin-2-yl)thiophene-2-sulfonamide]
The pKi of the first is lower: 6.00 to 6.30 for the first, 8.00 to 9.00 for the second.

`C#Cc1cnc(-c2ccc(S(=O)(=O)NCCNC(C)=O)s2)nc1Nc1cc(C2CC2)[nH]n1` [Compound 181, N-[2-[[5-[4-[(5-cyclopropyl-1H-pyrazol-3-yl)amino]-5-ethynyl-pyrimidin-2-yl]-2-thienyl]sulfonylamino]ethyl]acetamide] and `C#Cc1cnc(-c2ccc(S(=O)(=O)CCCNC(C)=O)s2)nc1Nc1cc(C2CC2)[nH]n1` [Compound 229, N-(3-(5-(4-(5-cyclopropyl-1H-pyrazol-3-ylamino)-5-ethynylpyrimidin-2-yl)thiophen-2-ylsulfonyl)propyl)acetamide] fall in the same range of pKi: 7.30 to 8.00 for the first, 7.30 to 8.00 for the second.

First: Clc1cnc(-c2ccccn2)nc1Nc1cc(C2CC2)[nH]n1 [Compound 182, 5-chloro-N-(5-cyclopropyl-1H-pyrazol-3-yl)-2-(pyridin-2-yl)pyrimidin-4-amine]
Second: O=C(O)C(=O)c1ccc(-c2ncc(Cl)c(Nc3cc(C4CC4)[nH]n3)n2)s1 [Compound 190, 2-(5-(5-chloro-4-(5-cyclopropyl-1H-pyrazol-3-ylamino)pyrimidin-2-yl)thiophen-2-yl)-2-oxoacetic acid]
The pKi of the first is lower: 5.70 to 6.00 for the first, 7.30 to 8.00 for the second.

`C#Cc1cnc(-c2ccc(S(=O)(=O)NCCNC(=O)C(C)(C)C)s2)nc1Nc1cc(C2CC2)n[nH]1` [Compound 183, N-(2-(5-(4-(5-cyclopropyl-1H-pyrazol-3-ylamino)-5-ethynylpyrimidin-2-yl)thiophene-2-sulfonamido)ethyl)pivalamide] and `C#Cc1cnc(-c2ccc(C(O)CCOC)s2)nc1Nc1cc(C2CC2)n[nH]1` (stereo not shown) [Compound 230, 1-[5-[4-[(5-cyclopropyl-2H-pyrazol-3-yl)amino]-5-ethynyl-pyrimidin-2-yl]-2-thienyl]-3-methoxy-propan-1-ol] fall in the same range of pKi: 7.00 to 7.30 for the first, 7.00 to 7.30 for the second.

`C#Cc1cnc(N2CC[C@@H](N)C2)nc1Nc1cc(C2CC2)n[nH]1` [Compound 184, 2-(3-aminopyrrolidin-1-yl)-N-(5-cyclopropyl-2H-pyrazol-3-yl)-5-ethynyl-pyrimidin-4-amine] and `C#Cc1cnc(N2CC[C@H](N)C2)nc1Nc1cc(C2CC2)n[nH]1` [Compound 187, 2-(3-aminopyrrolidin-1-yl)-N-(5-cyclopropyl-2H-pyrazol-3-yl)-5-ethynyl-pyrimidin-4-amine] cannot be ordered by pKi: < 5.40 for the first, < 5.40 for the second.

First: C#Cc1cnc(N2CCN(C(C)=O)CC2)nc1Nc1cc(C2CC2)n[nH]1 [Compound 185, 1-[4-[4-[(5-cyclopropyl-2H-pyrazol-3-yl)amino]-5-ethynyl-pyrimidin-2-yl]piperazin-1-yl]ethanone]
Second: C#Cc1cnc(-c2ccc(C(O)C(=O)O)s2)nc1Nc1cc(C2CC2)[nH]n1 (stereo not shown) [Compound 231, 2-[5-[4-[(5-cyclopropyl-1H-pyrazol-3-yl)amino]-5-ethynyl-pyrimidin-2-yl]-2-thienyl]-2-hydroxy-acetic acid]
The pKi of the first is lower: 6.00 to 6.30 for the first, 7.00 to 7.30 for the second. The second binds more tightly here.

First: CCOC(=O)C(=O)c1ccc(-c2ncc(Cl)c(Nc3cc(C4CC4)[nH]n3)n2)s1 [Compound 189, ethyl 2-(5-(5-chloro-4-(5-cyclopropyl-1H-pyrazol-3-ylamino)pyrimidin-2-yl)thiophen-2-yl)-2-oxoacetate]
Second: C#Cc1cnc(-c2ccc(C(=O)C(=O)OCC)s2)nc1Nc1cc(C2CC2)[nH]n1 [Compound 202, ethyl 2-[5-[4-[(5-cyclopropyl-1H-pyrazol-3-yl)amino]-5-ethynyl-pyrimidin-2-yl]-2-thienyl]-2-oxo-acetate]
The pKi of the first is lower: 7.00 to 7.30 for the first, 7.30 to 8.00 for the second.

First: C#Cc1cnc(-c2ccc(CO)s2)nc1Nc1cc(C2CC2)[nH]n1 [Compound 196, (5-(4-(5-cyclopropyl-1H-pyrazol-3-ylamino)-5-ethynylpyrimidin-2-yl)thiophen-2-yl)methanol]
Second: C#Cc1cnc(-c2ccc([C@H](O)CC)s2)nc1Nc1cc(C2CC2)[nH]n1 [Compound 213, 1-[5-[4-[(5-cyclopropyl-1H-pyrazol-3-yl)amino]-5-ethynyl-pyrimidin-2-yl]-2-thienyl]propan-1-ol]
The pKi of the first is lower: 7.30 to 8.00 for the first, 8.00 to 9.00 for the second. The second binds more tightly here.

First: C/C=C\c1cnc(-c2ccc(S(N)(=O)=O)s2)nc1Nc1cc(C2CC2)[nH]n1 [Compound 207, (Z)-5-(4-(5-cyclopropyl-1H-pyrazol-3-ylamino)-5-(prop-1-enyl)pyrimidin-2-yl)thiophene-2-sulfonamide]
Second: NS(=O)(=O)c1ccc(-c2ncc(Cl)c(Nc3cc(C4CCCC4)[nH]n3)n2)s1 [Compound 235, 5-[5-chloro-4-[(5-cyclopentyl-1H-pyrazol-3-yl)amino]-pyrimidin-2-yl]thiophene-2-sulfonamide]
The pKi of the first is higher: 8.00 to 9.00 for the first, 7.30 to 8.00 for the second.

First: CC(C)(C)NS(=O)(=O)c1ccc(-c2ncc(/C=C/CO)c(Nc3cc(C4CC4)[nH]n3)n2)s1 [Compound 218, (E)-N-tert-butyl-5-(4-(5-cyclopropyl-1H-pyrazol-3-ylamino)-5-(3-hydroxyprop-1-enyl)pyrimidin-2-yl)thiophene-2-sulfonamide]
Second: O=C(O)C(O)c1ccc(-c2ncc(Cl)c(Nc3cc(C4CC4)[nH]n3)n2)s1 (stereo not shown) [Compound 219, 2-(5-(5-chloro-4-(5-cyclopropyl-1H-pyrazol-3-ylamino)pyrimidin-2-yl)thiophen-2-yl)-2-hydroxyacetic acid]
The pKi of the first is higher: 7.00 to 7.30 for the first, 6.30 to 7.00 for the second.

`NS(=O)(=O)c1ccc(-c2ncc(Cl)c(Nc3cc(-c4cccs4)[nH]n3)n2)s1` [Compound 220, 5-[5-chloro-4-[[5-(2-thienyl)-1H-pyrazol-3-yl]amino]-pyrimidin-2-yl]thiophene-2-sulfonamide] and `NS(=O)(=O)c1ccc(-c2ncc(Cl)c(Nc3cc(-c4ccccc4)[nH]n3)n2)s1` [Compound 234, 5-[5-chloro-4-[(5-phenyl-1H-pyrazol-3-yl)amino]-pyrimidin-2-yl]thiophene-2-sulfonamide] cannot be ordered by pKi: < 5.40 for the first, < 5.40 for the second.

Compared with `NS(=O)(=O)c1ccc(-c2ncc(Cl)c(Nc3cc[nH]n3)n2)s1` [Compound 221, 5-[5-chloro-4-(1H-pyrazol-3-ylamino)-pyrimidin-2-yl]thiophene-2-sulfonamide], `C#Cc1cnc(-c2ccc(C(O)C(=O)OCC)s2)nc1Nc1cc(C2CC2)[nH]n1` (stereo not shown) [Compound 233, ethyl 2-[5-[4-[(5-cyclopropyl-1H-pyrazol-3-yl)amino]-5-ethynyl-pyrimidin-2-yl]-2-thienyl]-2-hydroxy-acetate] is lower in pKi: 8.00 to 9.00 for the first, 7.30 to 8.00 for the second. The first binds more tightly here.
